Measurements published in publication PMC11224111, “Optimizing the pharmacokinetics of an ^211At-labeled RGD peptide with an albumin-binding moiety via the administration of an albumin-binding inhibitor” (European Journal of Nuclear Medicine and Molecular Imaging, 2024).

Tested on: U-87 MG tumor-bearing mice
Assay: Biodistribution in U-87 MG tumor-bearing mice with IPBA
Assay type: in vivo
Settings: IPBA 10 eq at 1 h postinjection
Description: To prepare tumor-bearing mice, 5 × 10^6 of U-87 MG cells were subcutaneously inoculated into the right shoulder of 4-week-old female BALB/c nude mice (13–15 g, Japan SLC, Inc.) as previously reported. At approximately 10-day postinoculation of U-87 MG cells, they were used for each experiment after tumor size reached 0.3–0.5 cm^3.
At 1-h postinjection of [^211At]1 (37 kBq) and [^125I]2 (37 kBq), IPBA (1.9 mg, 6.1 µmol) was administered at 10 molar equivalent of blood albumin. Mice were sacrificed at 65-, 70-min, 2-, 4-, 12-, and 24-h postinjection of [^211At]1 and [^125I]2. Tissues of interest were removed and weighed, and radioactivity counts of ^125I and ^211At were determined with an auto well gamma counter (ARC-7010; Hitachi Medical, Ltd., Tokyo, Japan) and corrected for background radiation. To determine the radioactivity excreted from the body for 24 h, mice were housed in metabolic cages (Metabolica, Sugiyama-Gen Co., Ltd., Tokyo, Japan).

Ga-DOTA-K([^125I]IPBA)-c(RGDfK) [[^125I]2]
Radioactivity, Blood (65 min after administration): 11.19 (0.16)^ ** % injected activity per gram
Radioactivity, Bone (65 min after administration): 4.94 (1.52) % injected activity per gram
Radioactivity, Brain (65 min after administration): 0.31 (0.02) % injected activity per gram
Radioactivity, Heart (65 min after administration): 4.77 (0.10) % injected activity per gram
Radioactivity, Kidney (65 min after administration): 17.52 (1.13)^ * % injected activity per gram
Radioactivity, L. intestine (65 min after administration): 3.10 (0.11) % injected activity per gram
Radioactivity, Liver (65 min after administration): 5.29 (0.52)^ * % injected activity per gram
Radioactivity, Lung (65 min after administration): 10.10 (0.52)^ ** % injected activity per gram
Radioactivity, Muscle (65 min after administration): 2.62 (0.24) % injected activity per gram
Radioactivity, Neck (65 min after administration): 0.05 (0.01)^ * % injected activity
Radioactivity, Pancreas (65 min after administration): 2.66 (0.10) % injected activity per gram
Radioactivity, S. intestine (65 min after administration): 4.93 (0.21)^ * % injected activity per gram
Radioactivity, Spleen (65 min after administration): 3.95 (0.26) % injected activity per gram
Radioactivity, Stomach (65 min after administration): 1.33 (0.31) % injected activity
Radioactivity, Tumor (65 min after administration): 11.58 (0.32)^ * % injected activity per gram
Radioactivity, Blood (70 min after administration): 7.91 (0.45)^ *** % injected activity per gram
Radioactivity, Bone (70 min after administration): 2.30 (0.36) % injected activity per gram
Radioactivity, Brain (70 min after administration): 0.24 (0.04) % injected activity per gram
Radioactivity, Heart (70 min after administration): 3.25 (0.25)^ ** % injected activity per gram
Radioactivity, Kidney (70 min after administration): 11.87 (1.35)^ *** % injected activity per gram
Radioactivity, L. intestine (70 min after administration): 2.29 (0.24) % injected activity per gram
Radioactivity, Liver (70 min after administration): 3.64 (0.49)^ * % injected activity per gram
Radioactivity, Lung (70 min after administration): 6.75 (0.74)^ ** % injected activity per gram
Radioactivity, Muscle (70 min after administration): 1.53 (0.18) % injected activity per gram
Radioactivity, Neck (70 min after administration): 0.06 (0.01) % injected activity
Radioactivity, Pancreas (70 min after administration): 1.82 (0.14)^ * % injected activity per gram
Radioactivity, S. intestine (70 min after administration): 3.77 (0.37)^ ** % injected activity per gram
Radioactivity, Spleen (70 min after administration): 2.83 (0.36) % injected activity per gram
Radioactivity, Stomach (70 min after administration): 0.78 (0.15) % injected activity
Radioactivity, Tumor (70 min after administration): 11.24 (1.19)^ ** % injected activity per gram
Radioactivity, Blood (2 h after administration): 5.69 (0.44)^ *** % injected activity per gram
Radioactivity, Bone (2 h after administration): 2.73 (0.47) % injected activity per gram
Radioactivity, Brain (2 h after administration): 0.24 (0.02) % injected activity per gram
Radioactivity, Heart (2 h after administration): 2.24 (0.23)^ ** % injected activity per gram
Radioactivity, Kidney (2 h after administration): 8.39 (0.51) % injected activity per gram
Radioactivity, L. intestine (2 h after administration): 2.48 (1.12) % injected activity per gram
Radioactivity, Liver (2 h after administration): 2.31 (0.17)^ * % injected activity per gram
Radioactivity, Lung (2 h after administration): 4.74 (0.12)^ * % injected activity per gram
Radioactivity, Muscle (2 h after administration): 1.73 (0.60)^ * % injected activity per gram
Radioactivity, Neck (2 h after administration): 0.08 (0.04) % injected activity
Radioactivity, Pancreas (2 h after administration): 1.68 (0.36) % injected activity per gram
Radioactivity, S. intestine (2 h after administration): 2.41 (0.71) % injected activity per gram
Radioactivity, Spleen (2 h after administration): 2.33 (0.14) % injected activity per gram
Radioactivity, Stomach (2 h after administration): 0.77 (0.08) % injected activity
Radioactivity, Tumor (2 h after administration): 14.36 (1.54)^ ** % injected activity per gram
Radioactivity, Blood (4 h after administration): 1.71 (0.12)^ ** % injected activity per gram
Radioactivity, Bone (4 h after administration): 1.46 (0.16) % injected activity per gram
Radioactivity, Brain (4 h after administration): 0.18 (0.01) % injected activity per gram
Radioactivity, Heart (4 h after administration): 1.22 (0.12) % injected activity per gram
Radioactivity, Kidney (4 h after administration): 5.00 (0.36)^ ** % injected activity per gram
Radioactivity, L. intestine (4 h after administration): 4.61 (1.33)^ ** % injected activity per gram
Radioactivity, Liver (4 h after administration): 1.32 (0.06) % injected activity per gram
Radioactivity, Lung (4 h after administration): 2.31 (0.06)^ *** % injected activity per gram
Radioactivity, Muscle (4 h after administration): 0.52 (0.05)^ * % injected activity per gram
Radioactivity, Neck (4 h after administration): 0.05 (0.04) % injected activity
Radioactivity, Pancreas (4 h after administration): 0.72 (0.15) % injected activity per gram
Radioactivity, S. intestine (4 h after administration): 3.09 (0.79) % injected activity per gram
Radioactivity, Spleen (4 h after administration): 1.83 (0.10)^ * % injected activity per gram
Radioactivity, Stomach (4 h after administration): 0.65 (0.09) % injected activity
Radioactivity, Tumor (4 h after administration): 12.42 (0.89) % injected activity per gram
Radioactivity, Blood (12 h after administration): 1.65 (0.20)^ *** % injected activity per gram
Radioactivity, Bone (12 h after administration): 0.72 (0.09)^ * % injected activity per gram
Radioactivity, Brain (12 h after administration): 0.07 (0.01)^ ** % injected activity per gram
Radioactivity, Heart (12 h after administration): 1.02 (0.07)^ ** % injected activity per gram
Radioactivity, Kidney (12 h after administration): 2.71 (0.17)^ *** % injected activity per gram
Radioactivity, L. intestine (12 h after administration): 0.75 (0.05)^ *** % injected activity per gram
Radioactivity, Liver (12 h after administration): 0.70 (0.08)^ *** % injected activity per gram
Radioactivity, Lung (12 h after administration): 2.07 (0.11)^ *** % injected activity per gram
Radioactivity, Muscle (12 h after administration): 0.37 (0.01)^ *** % injected activity per gram
Radioactivity, Neck (12 h after administration): 0.06 (0.02)^ * % injected activity
Radioactivity, Pancreas (12 h after administration): 0.50 (0.02)^ ** % injected activity per gram
Radioactivity, S. intestine (12 h after administration): 0.68 (0.10)^ *** % injected activity per gram
Radioactivity, Spleen (12 h after administration): 1.03 (0.05)^ ** % injected activity per gram
Radioactivity, Stomach (12 h after administration): 0.39 (0.02)^ ** % injected activity
Radioactivity, Tumor (12 h after administration): 7.08 (0.74)^ ** % injected activity per gram
Radioactivity, Blood (24 h after administration): 1.55 (0.17)^ * % injected activity per gram
Radioactivity, Bone (24 h after administration): 0.48 (0.04) % injected activity per gram
Radioactivity, Brain (24 h after administration): 0.05 (0.01) % injected activity per gram
Radioactivity, Heart (24 h after administration): 0.92 (0.58) % injected activity per gram
Radioactivity, Kidney (24 h after administration): 1.67 (0.24) % injected activity per gram
Radioactivity, L. intestine (24 h after administration): 0.38 (0.22) % injected activity per gram
Radioactivity, Liver (24 h after administration): 0.56 (0.10)^ * % injected activity per gram
Radioactivity, Lung (24 h after administration): 1.58 (0.42) % injected activity per gram
Radioactivity, Muscle (24 h after administration): 0.26 (0.02) % injected activity per gram
Radioactivity, Neck (24 h after administration): 0.03 (0.00) % injected activity
Radioactivity, Pancreas (24 h after administration): 0.27 (0.05) % injected activity per gram
Radioactivity, S. intestine (24 h after administration): 0.26 (0.11) % injected activity per gram
Radioactivity, Spleen (24 h after administration): 0.72 (0.16)^ * % injected activity per gram
Radioactivity, Stomach (24 h after administration): 0.20 (0.04)^ * % injected activity
Radioactivity, Tumor (24 h after administration): 5.51 (0.05)^ * % injected activity per gram
Radioactivity excreted, Feces (until 24 h postinjection): 8.40 (3.14) % injected activity
Radioactivity excreted, Urine (until 24 h postinjection): 56.09 (4.93)^ ** % injected activity
